System: Plasmodium berghei
Assay: Luciferase/luciferin-expressing antifolate-resistant parasites were used to infect a culture of HepG2 cells that were pre-incubated with compounds. Infected hepatocytes emit light due to the luciferase reaction. Assay results are presented as the percent inhibition of light emission compared to control. […]
Format: functional
Details: sporozoite; for IC90: read-out: LUCIFERASE INFECTION ASSAY - IC90
[1] = read-out: LUCIFERASE INFECTION ASSAY - IC50

O=C1C=CC(=O)N1c1ccc(Cl)cc1Cl
IC50 (FFLUC_HILL_SLOPE 227, FFLUC_R_SQUARED 0.205, read-out: LUCIFERASE INFECTION ASSAY - IC50): > 13.6 µM | IC90: > 13.6 µM

CCNC(=O)c1cc(Cl)c(OCc2ccccc2)c(OC)c1
IC50 (PBLUC_HILL_SLOPE 2.26, PBLUC_R_SQUARED 0.647, read-out: LUCIFERASE INFECTION ASSAY - IC50): 5.81 µM | IC90: > 10.3 µM

Cn1nc(-c2ccc(S(=O)(=O)Oc3cccc([N+](=O)[O-])c3)s2)cc1C(F)(F)F
IC50 [1]: > 7.61 µM | IC90: > 7.61 µM

CN(C)c1ccc(-c2nnc3ccccn23)cc1
IC50 [1]: 6.56 µM | IC90: > 13.8 µM

O=c1cc(C(F)(F)F)[nH]c2cc(C(F)(F)F)ccc12
IC50 (PBLUC_HILL_SLOPE 15.4, PBLUC_R_SQUARED 0.673, read-out: LUCIFERASE INFECTION ASSAY - IC50): 3.68 µM | IC90: 4.25 µM

CC(C)(C)c1ccc(C(=O)Nc2cc(F)ccc2F)s1
IC50 (PBLUC_HILL_SLOPE 0.906, PBLUC_R_SQUARED 0.913, read-out: LUCIFERASE INFECTION ASSAY - IC50): 0.0487 µM | IC90: 0.55 µM

COCC(C)n1c(C)cc(C(=O)COC(=O)c2cccn2C)c1C (centres undefined)
IC50 [1]: 1.82 µM | IC90: 6.18 µM

CC(Sc1nccn1-c1cccc(F)c1)C(=O)Nc1ccc(N2CCOCC2)cc1 (centres undefined)
IC50 (FFLUC_HILL_SLOPE 11.8, FFLUC_R_SQUARED 0.0999, read-out: LUCIFERASE INFECTION ASSAY - IC50): > 10 µM | IC90: > 10 µM

COc1ccc(-c2cnc3c(NC(C)=O)cc(-c4ccc5[nH]ccc5c4)cn23)cc1OC
IC50 [1]: > 7.74 µM | IC90: > 7.74 µM

Cc1c(C)n(CCCO)c2ncn3nc(-c4ccccc4)nc3c12
IC50 (PBLUC_HILL_SLOPE 0.753, PBLUC_R_SQUARED 0.737, read-out: LUCIFERASE INFECTION ASSAY - IC50): 1.26 µM | IC90: > 10.3 µM

Clc1ccccc1-c1nc2ccnc(NCCc3ccccn3)c2[nH]1
IC50 (HEPG2TOX_HILL_SLOPE 2.25, HEPG2TOX_R_SQUARED 0.756, PBLUC_HILL_SLOPE 1.33, PBLUC_R_SQUARED 0.656, read-out: LUCIFERASE INFECTION ASSAY - IC50): 5.37 µM | IC90: > 10 µM

CCOc1ccccc1NC(=O)C(NCc1ccc(OC(F)F)cc1)c1ccccc1 (centres undefined)
IC50 (HEPG2TOX_HILL_SLOPE 2.27, HEPG2TOX_R_SQUARED 0.924, PBLUC_HILL_SLOPE 9.94, PBLUC_R_SQUARED 0.658, read-out: LUCIFERASE INFECTION ASSAY - IC50): 3.59 µM | IC90: 4.47 µM

CCOC(=O)c1sc(N)c(C#N)c1CSc1nnc(Cc2cccc3ccccc23)n1C1CCCCC1
IC50 (PBLUC_HILL_SLOPE 16.7, PBLUC_R_SQUARED 0.489, read-out: LUCIFERASE INFECTION ASSAY - IC50): 8.65 µM | IC90: 9.87 µM

O=[N+]([O-])c1ccc(N/N=C2\CCSc3ccc(Cl)cc32)cc1
IC50 (FFLUC_HILL_SLOPE 1.76, FFLUC_R_SQUARED 0.654, HEPG2TOX_HILL_SLOPE 8.57, HEPG2TOX_R_SQUARED 0.177, PBLUC_HILL_SLOPE 41.5, PBLUC_R_SQUARED 0.423, read-out: LUCIFERASE INFECTION ASSAY - IC50): 9.27 µM | IC90: 9.78 µM

CS(=O)(=O)c1ccc(S(=O)(=O)Nc2cccc3c2CCCC3)cc1
IC50 [1]: > 10 µM | IC90: > 10 µM

CCOc1ccccc1NC(=O)C(c1ccccc1)N1CCC(n2c(=O)[nH]c3ccccc32)CC1 (centres undefined)
IC50 [1]: 5.29 µM | IC90: > 10 µM

Cc1ccc(C(=O)Nc2nc(CC34CC5CC(CC(C5)C3)C4)cs2)s1
IC50 (PBLUC_HILL_SLOPE 2.85, PBLUC_R_SQUARED 0.204, read-out: LUCIFERASE INFECTION ASSAY - IC50): 6.66 µM | IC90: > 10 µM

Cc1ccc(S(=O)(=O)Oc2c(C(C)C)cc(Nc3ccccc3)cc2C(C)C)cc1
IC50 (HEPG2TOX_HILL_SLOPE 0.494, HEPG2TOX_R_SQUARED 0.437, PBLUC_HILL_SLOPE 0.599, PBLUC_R_SQUARED 0.52, read-out: LUCIFERASE INFECTION ASSAY - IC50): 2.17 µM | IC90: > 10 µM

Cc1cc(=O)n2nc(-c3ccc(C(C)(C)C)cc3)cc2[nH]1
IC50 (HEPG2TOX_HILL_SLOPE 9.72, HEPG2TOX_R_SQUARED 0.89, PBLUC_HILL_SLOPE 2.59, PBLUC_R_SQUARED 0.666, read-out: LUCIFERASE INFECTION ASSAY - IC50): 1.04 µM | IC90: 2.42 µM

O=C(OCc1cn2cc(Cl)ccc2n1)c1cc([N+](=O)[O-])ccc1N1CCCC1
IC50 (HEPG2TOX_HILL_SLOPE 1.77, HEPG2TOX_R_SQUARED 0.925, PBLUC_HILL_SLOPE 9.51, PBLUC_R_SQUARED 0.622, read-out: LUCIFERASE INFECTION ASSAY - IC50): 0.976 µM | IC90: 1.23 µM

COc1cccc(-c2cc3c(Nc4cccc(N(C)C)c4)nccc3n2C)c1
IC50 (PBLUC_HILL_SLOPE 3.57, PBLUC_R_SQUARED 0.3, read-out: LUCIFERASE INFECTION ASSAY - IC50): 4.46 µM | IC90: 8.25 µM

O=C(Nc1cc(S(=O)(=O)c2ccccc2)cs1)c1ccc(Cl)cc1
IC50 (HEPG2TOX_HILL_SLOPE 7.57, HEPG2TOX_R_SQUARED 0.801, PBLUC_HILL_SLOPE 3.36, PBLUC_R_SQUARED 0.445, read-out: LUCIFERASE INFECTION ASSAY - IC50): 2.85 µM | IC90: 5.49 µM

COc1cc(/C=C(/C(=O)c2cccs2)c2nc3ccccc3[nH]2)cc(OC)c1O
IC50 (HEPG2TOX_HILL_SLOPE 9.16, HEPG2TOX_R_SQUARED 0.911, PBLUC_HILL_SLOPE 3.79, PBLUC_R_SQUARED 0.1, read-out: LUCIFERASE INFECTION ASSAY - IC50): 7.39 µM | IC90: > 10 µM

Cc1nc2ccccc2n1CCNC(=O)c1ccc(Cl)cc1NC(=O)c1cccs1
IC50 (PBLUC_HILL_SLOPE 48.3, PBLUC_R_SQUARED 0.528, read-out: LUCIFERASE INFECTION ASSAY - IC50): 4.56 µM | IC90: 4.77 µM

CCCCNC(=O)c1c(NC(=O)C(C)Oc2ccccc2)nc2ccc(C)cn12 (centres undefined)
IC50 (HEPG2TOX_HILL_SLOPE 6.71, HEPG2TOX_R_SQUARED 0.423, PBLUC_HILL_SLOPE 12, PBLUC_R_SQUARED 0.638, read-out: LUCIFERASE INFECTION ASSAY - IC50): 7.31 µM | IC90: > 8.37 µM

O=c1c(Cl)c(Cl)cnn1CCOc1cccc(Br)c1
IC50 [1]: > 10 µM | IC90: > 10 µM

CCCCCN1C(=O)/C(=N\n2c(-c3ccccc3F)cs/c2=N\C2CCCCC2)c2ccccc21
IC50 (FFLUC_HILL_SLOPE 1.7, FFLUC_R_SQUARED 0.73, PBLUC_HILL_SLOPE 13.5, PBLUC_R_SQUARED 0.29, read-out: LUCIFERASE INFECTION ASSAY - IC50): 8.58 µM | IC90: > 10 µM

CC(=O)c1ccc(-c2ccc(C(=O)N3CCC(c4nc5ccccc5o4)CC3)o2)cc1
IC50 (HEPG2TOX_HILL_SLOPE 6.21, HEPG2TOX_R_SQUARED 0.873, read-out: LUCIFERASE INFECTION ASSAY - IC50): > 10 µM | IC90: > 10 µM

CN(C)C(=O)Oc1ccc(Br)cc1C(=O)Nc1ccc(F)c(Cl)c1
IC50 [1]: > 7.94 µM | IC90: > 7.94 µM

CC(=O)Nc1nc(C(=O)Nc2ccc3c(c2)OC(F)(F)O3)cs1
IC50 (PBLUC_HILL_SLOPE 15.0, 3.17, PBLUC_R_SQUARED 0.232, 0.795, read-out: LUCIFERASE INFECTION ASSAY - IC50): 7.96 µM | IC90: > 10 µM

COc1ccc(-c2nc3ccnc(NCc4ccc(Cl)cc4)c3[nH]2)cc1
IC50 (PBLUC_HILL_SLOPE 2.99, PBLUC_R_SQUARED 0.272, read-out: LUCIFERASE INFECTION ASSAY - IC50): 2.27 µM | IC90: 4.74 µM

O=C(Nc1c2ccccc2nc2ccccc12)c1[nH]nc2c1CCCC2
IC50 (HEPG2TOX_HILL_SLOPE 2.71, HEPG2TOX_R_SQUARED 0.934, PBLUC_HILL_SLOPE 11.2, PBLUC_R_SQUARED 0.297, read-out: LUCIFERASE INFECTION ASSAY - IC50): 3.34 µM | IC90: 4.07 µM

CCOC(=O)c1cnc2c([N+](=O)[O-])cccc2c1O
IC50 (PBLUC_HILL_SLOPE 2.74, PBLUC_R_SQUARED 0.626, read-out: LUCIFERASE INFECTION ASSAY - IC50): 1.79 µM | IC90: 4 µM

Cn1c(N)c(N2CCNCC2)c(=O)n(C)c1=O
IC50 [1]: > 10 µM | IC90: > 10 µM

Cc1c(C)n(Cc2ccccc2)c2ncn3nc(-c4cccnc4)nc3c12
IC50 [1]: > 9.31 µM | IC90: > 9.31 µM

O=C(CSCc1nc(-c2ccc(Cl)cc2)cs1)NNS(=O)(=O)c1ccc(Cl)cc1
IC50 (HEPG2TOX_HILL_SLOPE 8.04, HEPG2TOX_R_SQUARED 0.486, read-out: LUCIFERASE INFECTION ASSAY - IC50): > 6.76 µM | IC90: > 6.76 µM

COc1ccccc1NC(=O)C(C)OC(=O)c1ccc(NS(=O)(=O)c2ccc(Cl)c(Cl)c2)cc1 (centres undefined)
IC50 (HEPG2TOX_HILL_SLOPE 8.29, HEPG2TOX_R_SQUARED 0.881, read-out: LUCIFERASE INFECTION ASSAY - IC50): > 10 µM | IC90: > 10 µM

Cc1ccc2c(c1)NC(C)c1ccccc1O2 (centres undefined)
IC50 (FFLUC_HILL_SLOPE 2.08, FFLUC_R_SQUARED 0.224, HEPG2TOX_HILL_SLOPE 6.95, HEPG2TOX_R_SQUARED 0.413, PBLUC_HILL_SLOPE 13.7, PBLUC_R_SQUARED 0.727, read-out: LUCIFERASE INFECTION ASSAY - IC50): 8.91 µM | IC90: > 10 µM

CC(C)(C)c1cnnn1-c1ccc(C(=O)/C=C/c2ccccc2)cc1
IC50 [1]: > 10 µM | IC90: > 10 µM

Cc1cccc(N2CCN(C(=O)c3ccccc3SCC(=O)Nc3ccc(F)cc3)CC2)c1C
IC50 (HEPG2TOX_HILL_SLOPE 6.74, HEPG2TOX_R_SQUARED 0.191, PBLUC_HILL_SLOPE 2.5, PBLUC_R_SQUARED 0.41, read-out: LUCIFERASE INFECTION ASSAY - IC50): 5.48 µM | IC90: > 10 µM

CCOC(=O)C1=C(NC(=O)Nc2ccc(Cl)c(Cl)c2)Nc2ccccc2N=C1CC
IC50 [1]: > 10 µM | IC90: > 10 µM

CCOc1ccc(N(C)S(=O)(=O)c2ccc(C)c(C(=O)Nc3nc4ccccc4[nH]3)c2)cc1
IC50 (PBLUC_HILL_SLOPE 2.47, PBLUC_R_SQUARED 0.24, read-out: LUCIFERASE INFECTION ASSAY - IC50): 1.59 µM | IC90: 3.87 µM
